Data taken from patent US8323919B2, “Assay methods for identifying glycogen synthase kinase 3 modulators” (PerkinElmer BioSignal, Inc., priority 2009, dated 2012).

Molecular target: T1, GSK3β (Homo sapiens, UniProt P49841)
T1 construct: purchased Carna Biosciences
Assay: LANCE Ultra TR-FRET kinase assay: phosphorylation of non-primed ULight-labeled 4E-BP1-derived peptide by GSK3β in the presence of inhibitor
Assay type: biochemical
Conditions: GSK3β (Carna Biosciences) 2 nM, ATP 10 μM, ULight-4E-BP1 50 nM, 60 min, DMSO 1%, inhibitor at various concentrations
Method: Anti-phosphorylated-4E-BP1 antibody (Thr37/46) labeled with a FRET donor is added and upon irradiation, the proximity of the FRET donor and FRET acceptor produce a signal, shown on the y-axis. The 4E-BP1-derived peptide substrate of SEQ ID No. 7 was used, modified by addition of three amino acids at both the N- and C-termini to facilitate solubilizing the peptide and labeling of the peptide with a FRET acceptor label; and
Anti-phosphorylated-4E-BP1 antibody (Thr37/46) labeled with a FRET donor is added and upon irradiation, the proximity of the FRET donor and FRET acceptor produce a signal, shown on the y-axis The 4E-BP1-derived peptide substrate of SEQ ID No. 7 was used, modified by addition of three amino acids at both the N- and C-termini to facilitate solubilizing the peptide and labeling of the peptide with a FRET acceptor label.
LANCE® Ultra assays are based on time-resolved fluorescence resonance energy transfer (TR-FRET). They use a proprietary europium chelate donor dye, W-1024 (Eu), with ULight®, a small molecular weight acceptor dye with a red fluorescent emission. In kinase assays, the binding of a Eu-labeled anti-phospho-substrate antibody to the phosphorylated ULight-labeled substrate brings donor and acceptor dye molecules into proximity. […]

T1 sequence (P49841 whole entry): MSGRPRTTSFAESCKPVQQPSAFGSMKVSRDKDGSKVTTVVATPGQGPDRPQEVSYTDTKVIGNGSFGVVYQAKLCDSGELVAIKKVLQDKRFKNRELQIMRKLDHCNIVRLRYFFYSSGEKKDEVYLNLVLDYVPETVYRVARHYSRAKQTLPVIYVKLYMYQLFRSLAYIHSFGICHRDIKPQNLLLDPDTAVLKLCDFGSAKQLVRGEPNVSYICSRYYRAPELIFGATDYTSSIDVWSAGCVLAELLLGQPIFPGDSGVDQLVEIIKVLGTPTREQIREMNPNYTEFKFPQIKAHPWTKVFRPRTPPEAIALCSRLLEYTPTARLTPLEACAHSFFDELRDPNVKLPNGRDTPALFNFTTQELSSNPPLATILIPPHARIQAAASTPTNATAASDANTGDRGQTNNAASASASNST

| SMILES | GSK3β activity on a 4E-BP1 GSK3 substrate |
| --- | --- |
| Cn1cc(C2=C(c3ccc(Cl)cc3Cl)C(=O)NC2=O)c2ccccc21 [SB216763] | inhibited |
| O=C1Cc2c([nH]c3ccc(Br)cc23)-c2ccccc2N1 [kenpaullone] | inhibited |
